Where a name gives a salt, the structure may show the parent alone.
Assays:
[1] = test system: bronchospasms induced by histamine; experiment: Konzett-Roessler bronchospasm test, histamine-induced (antihistaminic activity); assay type: in vivo; conditions: guinea pigs, i.v.; for ED50: Cavia porcellus, iv, histamine-induced, read-out: dose which inhibits 50% of the induced bronchospasms, Histamine
Protocol: (§1) These activities were measured in guinea pigs by the method of H. Konzett and R. […] Anaesthetized and curarized guinea pigs are subjected to artificial ventilation. The endotracheal pressure is recorded. Repeated bronchial spasms are induced by successive and progressive intravenous injections of respectively acetylcholine, histamine and serotonin. The test compounds are also administered intravenously.

[2] = test system: bronchospasms induced by acetylcholine; experiment: Konzett-Roessler bronchospasm test, acetylcholine-induced; assay type: in vivo; conditions: Cavia porcellus, iv, guinea pigs, i.v., read-out: dose which inhibits 50% of the induced bronchospasms, Acetylcholine
Protocol: as §1

[3] = test system: bronchospasms induced by serotonin; experiment: Konzett-Roessler bronchospasm test, serotonin-induced; assay type: in vivo; conditions: Cavia porcellus, iv, guinea pigs, i.v., read-out: dose which inhibits 50% of the induced bronchospasms, Serotonin
Protocol: as §1

[4] = test system: passive cutaneous anaphylaxis; experiment: passive cutaneous anaphylaxis test (PCA), antiallergic activity; assay type: in vivo; conditions: rats; for ED50: Rattus norvegicus, 0.25 h, read-out: ID 50 per os (reduction of 50% of the surface area of the colored spot)
Protocol: This activity is determined in rats by means of the passive cutaneous anaphylaxis test (PCA) (see J. Goose and A. M. J. N. Blair, Immunology,16,(1969),749-760; and U. Martin and D. Roemer, Arzneimittel-Forschung,28,(5), (1978),770-782).
Female rats are used, the sides of which have been partly shaved. Into the zone thus shaved there is injected intradermally, for passive sensitization of the animals, 0.05 ml of IGE antiovalbumin serum at a dilution such that, at the time of the PCA test, a distinct spot with a surface area of about 100 mm^2 appears at the point of injection.
72 Hours after the injection, 0.25 ml of a solution of allergen containing a coloring agent (5 mg of ovalbumin and 6 mg Evans Blue in 0.25 ml of a 0.9% aqueous solution of sodium chloride) is administered intravenously. At the point of intradermal injection, there appears a distinct blue spot, the surface of which is measured.
In order to test the activity of the compound according to the present invention, the procedure is carried out in the same manner; however:
the test compound is administered orally 72 hours after injection of the serum;
15 minutes after this administration, 0.25 ml of the solution of the allergen is injected intravenously;
30 minutes after the administration of the allergen, the surface of the blue spot is measured.
The following Table gives the immunological doses (ID 50 in μmol/kg) which bring about, on average of the total number of animals submitted to the test, a reduction of 50% of the surface area of the colored spot.

mice [5] = experiment: General behaviour of mice (Irwin's test), tranquilization; assay type: in vivo; conditions: male mice, intraperitoneal
Protocol: The behaviour is studied by means of Irwin's test (see S. Irwin, "General philosophy and methodology of screening: a multidimensional approach"; Gordon Research Conference on Medicinal Chemistry, Aug. 3-7, 1959, at Colby Junior College, New London).
(§2) Progressive doses of the test compounds are administered intraperitoneally to groups of three male mice (body weight 18 to 22 g) and the general behaviour of the animals is observed according to known criteria. The reference compounds used are the following:
The following Table gives the doses (in mg/kg) which induce the first manifestations of tranquilization in the animals: […]

mice [6] = conditions: mouse, in vivo, ip
Protocol: as §2
Furthermore, in this test, the toxicity of the compounds according to the present invention appears to be very low. This toxicity, determined by intraperitoneal administration in mice (dose which brings about the death of two animals out of three), is given in the following Table: […]

[7] = Oral toxicity LD50 in mice; conditions: mouse, in vivo
Protocol: (§3) The compounds according to the present invention have a very low toxicity. The toxicity LD50 (in mg/kg) is determined by oral administration to rats and mice. Thus, in the case of compound A, this toxicity is 1903 mg/kg in rats and 959 mg/kg in mice.

[8] = test system: respiratory spasm induced by pilocarpine; experiment: pilocarpine dog test, broncholytic activity; assay type: in vivo; conditions: dogs, i.v.
Protocol: Anaesthetized and curarized dogs are subjected to artificial ventilation. The endotracheal pressure is recorded. A constant respiratory spasm is induced by the continuous intravenous perfusion of pilocarpine. The test substances are also administered intravenously.

[9] = Oral toxicity LD50 in rats; conditions: rat, in vivo
Protocol: as §3

[10] = oral, allergen i.v. 15 minutes after administration

Structure (SMILES)	ED50 [1] [mg/kg]	ED50 [2] [mg/kg]	ED50 [3] [mg/kg]	ED50 [4, 10] [µmol/kg]	"Tranquilizing" dose (first manifestations of tranquilization) (mice [5])	Toxicity (dose which brings about the death of two animals out of three) (mice [6]) [mg/kg]	further results
O=C(O)COCCN1CCC(=C(c2ccccc2)c2ccc(F)cc2)CC1 [compound L, 2-[2-[4-[(4-fluorophenyl)phenylmethylene]-1-piperidinyl]ethoxy]-acetic acid]	0.058	> 11.8	0.198	34	110 mg/kg	369	
OCCOCCN1CCN(C(c2ccccc2)c2ccc(Cl)cc2)CC1 (stereo not drawn) [Hydroxyzine, 1-(p-chloro-alpha-phenylbenzyl)-4-(2-hydroxyethoxyethyl)piperazine, reference compound]					27 mg/kg		
COc1ccc(C(=C2CCN(CCOCC(N)=O)CC2)c2ccccc2)cc1.Cl [compound H, 2-[2-[4-[(4-methoxyphenyl)phenylmethylene]-1-piperidinyl]ethoxy]-acetamide hydrochloride]	0.026	> 41.6	0.18	31.4		416	
NC(=O)COCCOCCN1CCC(=C(c2ccccc2)c2ccc(Cl)cc2)CC1 [compound E, 2-[2-[2-[4-[(4-chlorophenyl)phenylmethylene]-1-piperidinyl]ethoxy]ethoxy]-acetamide]	0.348	> 4.29	0.085	34		128	
NC(=O)COCCN1CCC(=C(c2ccccc2)c2ccc(F)cc2)CC1 [compound G, 2-[2-[4-[(4-fluorophenyl)phenylmethylene]-1-piperidinyl]ethoxy]-acetamide]	0.093	> 11.8	0.023	5.5		368	
Cl.O=C(O)COCCOCCN1CCC(=C(c2ccccc2)c2ccc(Cl)cc2)CC1 [compound J, 2-[2-[2-[4-[(4-chlorophenyl)phenylmethylene]-1-piperidinyl]ethoxy]ethoxy]-acetic acid hydrochloride]	0.283	> 46.6	0.796	100	47 mg/kg	140	
O=C1Nc2ccc(Cl)cc2C(c2ccccc2)=NC1O (stereo not shown) [Oxazepam, 7-chloro-1,3-dihydro-3-hydroxy-5-phenyl-2H-1,4-benzodiazepin-2-one, reference compound]					2.6 mg/kg		
Cl.NC(=O)COCCN1CCC(=C(c2ccccc2)c2ccc(Cl)cc2)CC1 [compound D, 2-[2-[4-[(4-chlorophenyl)phenylmethylene]-1-piperidinyl]ethoxy]-acetamide hydrochloride]				67.4		126	
Cl.O=C(O)COCCN1CCC(=C(c2ccccc2)c2ccccc2)CC1 [compound B, 2-[2-[4-(diphenylmethylene)-1-piperidinyl]ethoxy]-acetic acid hydrochloride]	0.037	> 82.5	0.206	39	105 mg/kg	233	
Cl.NC(=O)COCCOCCN1CCC(=C(c2ccccc2)c2ccccc2)CC1 [compound C, 2-[2-[2-[4-(diphenylmethylene)-1-piperidinyl]ethoxy]ethoxy]-acetamide hydrochloride]	0.031	0.47	0.009	76		258	
Cl.O=C(COCCOCCN1CCC(=C(c2ccccc2)c2ccccc2)CC1)Nc1ccccc1 [compound N, 2-[2-[2-[4-(diphenylmethylene)-1-piperidinyl]ethoxy]ethoxy]-N-phenylacetamide hydrochloride]	0.192	1.35	0.086	15.2			
Cl.O=C(O)COCCN1CCC(=C(c2ccccc2)c2ccc(Cl)cc2)CC1 [compound I, 2-[2-[4-[(4-chlorophenyl)phenylmethylene]-1-piperidinyl]ethoxy]-acetic acid hydrochloride]	0.413	13.5	1.18	100	76 mg/kg	844	
NC(=O)COCCN1CCC(=C(c2ccccc2)c2ccccc2Cl)CC1 [compound F, 2-[2-[4-[(2-chlorophenyl)phenylmethylene-1-piperidinyl]ethoxy]-acetamide hydrochloride]	0.551	> 1.35	0.055	66	no sedative effect at all	421	
Cl.O=C(O)COCCOCCN1CCC(=C(c2ccccc2)c2ccccc2)CC1 [compound A, 2-[2-[2-[4-(diphenylmethylene)-1-piperidinyl]ethoxy]ethoxy]-acetic acid hydrochloride]	2.65	4.13	2.56	133	130 mg/kg	432	LD50 [7]: 959 mg/kg; antihistaminic activity 4 hours after injection ([1]; 1 mg/kg, 4 hours): retains this activity; antihistaminic activity after 90 minutes ([1]; 1 mg/kg, after 90 minutes): 100%; reduction of the intensity of the induced spasm ([8]; 320 μg/kg): 50%; broncholytic activity compared with theophylline (in words) ([8]; vs theophylline): clearly superior to that of theophylline; LD50 [9]: 1900 mg/kg
Cn1c(=O)c2[nH]cnc2n(C)c1=O [theophylline, reference compound]							reduction of the intensity of the induced spasm ([8]; 3200 μg/kg): 35%
Cl.O=C(O)COCCN1CCC(=C(c2ccccc2)c2ccccc2Cl)CC1 [compound K, 2-[2-[4-[(2-chlorophenyl)phenylmethylene]-1-piperidinyl]ethoxy]-acetic acid hydrochloride]	0.104	39.5	0.43	100	126 mg/kg	422	
COc1ccc(C(=C2CCN(CCOCC(=O)O)CC2)c2ccccc2)cc1.Cl [compound M, 2-[2-[4-[(4-methoxyphenyl)phenylmethylene]-1-piperidinyl]ethoxy]-acetic acid hydrochloride]	0.181	> 41.8	0.893	208	125 mg/kg	418	
O=C(O)c1cc(=O)c2c(OCC(O)COc3cccc4oc(C(=O)O)cc(=O)c34)cccc2o1 [sodium cromoglycate, reference compound]							ID 50 per os (reduction of 50% of the surface area of the colored spot) [4, 10]: inactive; activity when administered per os (in words) ([4]; per os): inactive

Reference: US4443460A, “2-[4-(Diphenylmethylene)-1-piperidinyl]-acetic acids and their amides” (UCB, Societe Anonyme, priority 1980, dated 1984)
